Data taken from patent US11090318B2, “Wound healing promoter” (NAHLS CORPORATION CO., LTD., priority 2017, dated 2021).
Structures can show the parent of a compound that is named as a salt.

How the values were obtained:
[1] = test system: Mouse fetus-derived fibroblasts; test: Gene expression in fibroblasts with or without TGF-β (real-time PCR); type: cell-based; settings: for PDLIM2 gene expression: 10 μg/mL, FIG. 6
Experimental: Mouse fetus-derived fibroblasts were spread or inoculated in a 10% FCS-containing Dulbecco's modified Eagle medium (DMEM) and cultured for 24 hours. The 10% FCS-containing DMEM was then removed, and a fresh DMEM devoid of FCS was added, followed by cultivation for further 24 hours. Next, the DMEM containing the cells was combined with Nahlsgen or D-AP6 obtained in Preparation Example 1 to a concentration of 10 μg/mL, cultured for 5 hours, further combined with TGF-β, and cultured for further 5 hours. After the cultivation, RNAs or proteins were recovered, and the quantities of MMP3, MMP9, MMP13, FGF, TGF-β, amphiregulin, PDLIM2, and hyaluronic acid (HSA2) were determined using the real-time PCR technique.

[2] = test system: domestic dog affected by conjunctivitis; test: Eye drops in a domestic dog affected by conjunctivitis; type: in vivo; settings: antibiotic alone by instillation twice a day for one year or longer, before preparation (6)
Experimental: The pharmaceutical preparation (6) was administered as drops to the eyes of a domestic dog affected by conjunctivitis, and 30 minutes later an antibiotic (cefmenoxime hydrochloride 0.5%) was administered as drops to the eyes. This process was repeated twice a day for 5 days.
The domestic dog had suffered from signs of dry eye syndrome and often undergone conjunctivitis resulting from bacterial infection.

[3] = 10 μg/mL together with TGF-β, compared with TGF-β alone
[4] = substance added alone, Nahlsgen or D-AP6 10 μg/mL

## COP(=O)(CCC(N)C(=O)O)Oc1cccc(CC(=O)O)c1 (centres unmarked) [Nahlsgen]
[1]; [3]
  expression of FGF: significantly increased the expression levels as compared with the addition of TGF-β alone
  expression of MMP3: significantly increased the expression levels as compared with the addition of TGF-β alone
  expression of MMP9: significantly increased the expression levels as compared with the addition of TGF-β alone
  expression of MMP13: significantly increased the expression levels as compared with the addition of TGF-β alone
  expression of TGF-β: significantly increased the expression levels as compared with the addition of TGF-β alone
  expression of amphiregulin: significantly increased the expression levels as compared with the addition of TGF-β alone
  expression of hyaluronic acid: significantly increased the expression levels as compared with the addition of TGF-β alone
[1]
  PDLIM2 gene expression: reduced PDLIM2 gene expression
[1]; [4]
  expression of FGF: approximately no change in the expression levels
  expression of MMP3: approximately no change in the expression levels
  expression of MMP9: approximately no change in the expression levels
  expression of MMP13: approximately no change in the expression levels
  expression of TGF-β: approximately no change in the expression levels
  expression of amphiregulin: approximately no change in the expression levels
  expression of hyaluronic acid: approximately no change in the expression levels

## CO/N=C(\C(=O)N[C@@H]1C(=O)N2C(C(=O)O)=C(CSc3nnnn3C)CS[C@H]12)c1csc(N)n1 [antibiotic, cefmenoxime hydrochloride]
[2]
  curative effects: failed to enjoy curative effects

## TGF-β [reference compound]
[1]; [4]
  expression of FGF: increased the expression
  expression of MMP3: increased the expression
  expression of MMP9: increased the expression
  expression of MMP13: increased the expression
  expression of TGF-β: increased the expression
  expression of amphiregulin: increased the expression
  expression of hyaluronic acid: increased the expression

## N[C@H](CCCCP(=O)(O)O)C(=O)O [D-AP6, D-2-amino-6-phosphonohexanoic acid monohydrate]
[1]; [3]
  expression of FGF: significantly increased the expression levels as compared with the addition of TGF-β alone
  expression of MMP3: significantly increased the expression levels as compared with the addition of TGF-β alone
  expression of MMP9: significantly increased the expression levels as compared with the addition of TGF-β alone
  expression of MMP13: significantly increased the expression levels as compared with the addition of TGF-β alone
  expression of TGF-β: significantly increased the expression levels as compared with the addition of TGF-β alone
  expression of amphiregulin: significantly increased the expression levels as compared with the addition of TGF-β alone
  expression of hyaluronic acid: significantly increased the expression levels as compared with the addition of TGF-β alone
[1]
  PDLIM2 gene expression: reduced PDLIM2 gene expression
[1]; [4]
  expression of FGF: approximately no change in the expression levels
  expression of MMP3: approximately no change in the expression levels
  expression of MMP9: approximately no change in the expression levels
  expression of MMP13: approximately no change in the expression levels
  expression of TGF-β: approximately no change in the expression levels
  expression of amphiregulin: approximately no change in the expression levels
  expression of hyaluronic acid: approximately no change in the expression levels
